Where two headings read alike, the source gives them in different places. Bounds are passed on as bounds.

For this assay, the target named is T1, TYK2 kinase domain (Homo sapiens, UniProt P29597).
T1 construct: made in house; host or cells: SF9 insect cells (recombinant baculovirus)
T1 sequence (P29597 873-1187): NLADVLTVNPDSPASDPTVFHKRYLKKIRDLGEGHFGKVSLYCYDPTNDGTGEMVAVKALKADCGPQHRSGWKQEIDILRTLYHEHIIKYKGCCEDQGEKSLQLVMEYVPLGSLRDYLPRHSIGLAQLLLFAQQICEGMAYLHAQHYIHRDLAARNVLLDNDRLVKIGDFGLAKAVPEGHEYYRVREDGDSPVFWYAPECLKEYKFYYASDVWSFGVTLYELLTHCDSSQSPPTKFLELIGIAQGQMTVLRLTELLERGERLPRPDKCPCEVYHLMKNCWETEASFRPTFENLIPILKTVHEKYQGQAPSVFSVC
The assay is described as follows: TYK2 inhibition assay (Caliper LabChip, isolated kinase domain). The assay is classed as biochemical. An excerpt: The catalytically active kinase domain of human JAK1, JAK2, JAK3 or TYK2 was purified from extracts of SF9 insect cells infected with a recombinant baculovirus expression vector encoding the human JAK1, JAK2, JAK3 or TYK2 kinase domains (JAK1 amino acid residues N852-D1154 according to the numbering of GenBank sequence accession number P23458, JAK2 amino acid residues D812-G1132 according to the numbering of GenBank sequence accession number NP_004963.1; JAK3 amino acid residues S783-S1124 according to the numbering of GenBank sequence accession number P52333, and TYK2 amino acid residues N873-C1187 according to the numbering of GenBank sequence accession number P29597). The activity of the JAK1, JAK2, JAK3 or TYK2 kinase domains can be measured by a number of direct and indirect methods, including quantification of phosphorylation of peptide substrates derived from the human JAK3 protein (Saltzman et al., Biochem. Biophys. Res. Commun. 246:627-633 (2004)). The activity of the JAK1, JAK2, JAK3 or TYK2 kinase domains was measured in vitro by monitoring phosphorylation of JAK3 derived peptides using the Caliper LabChip technology (see Examples).
The activity of the isolated JAK1, JAK2 or TYK2 kinase domain was measured by monitoring phosphorylation of a peptide derived from JAK3 (SEQ ID NO:1 […] fluorescently labeled on the N-terminus with 5-carboxyfluorescein using the Caliper LabChip technology (Caliper Life Sciences, Hopkinton, Mass.). […] Reactions were incubated at 22° C. in 384-well polypropylene microtiter plates for 30 minutes and then stopped by addition of 25 uL of an EDTA containing solution (100 mM Hepes pH 7.2, 0.015% Brij-35, 150 mM EDTA), resulting in a final EDTA concentration of 50 mM. After termination of the kinase reaction, the proportion of phosphorylated product was determined as a fraction of total peptide substrate using the Caliper LabChip 3000 according to the manufacturer's specifications. Ki values were then determined using the Morrison tight binding model. Morrison, J. F., Biochim. Biophys. Acta. 185:269-296 (1969); William, J. W. and Morrison, J. F., Meth. Enzymol., 63:437-467 (1979).

Where [1] appears, read: isolated TYK2 kinase domain, 25 uM ATP, values given as 'about', read-out: Ki values for TYK2 inhibition.

As usually defined, the Ki is the equilibrium dissociation constant of an inhibitor or competing ligand from its target. Take `O=C(Nc1ccnc(NC(=O)[C@H]2C[C@H]2F)c1)c1c(Cl)cc(CO)cc1Cl` (relative stereo) [Example 315, 2,6-dichloro-N-(2-(cis-2-fluorocyclopropanecarboxamido)pyridin-4-yl)-4-(hydroxymethyl)benzamide]: the Ki under setting [1] was roughly 8 nM. In turn, `O=C(Nc1ccnc(NC(=O)[C@H]2C[C@@H]2c2nnn[nH]2)c1)c1c(Cl)cccc1Cl` (relative stereo) [Example 320, N-(2-(trans-2-(1H-tetrazol-5-yl)cyclopropanecarboxamido)pyridin-4-yl)-2,6-dichlorobenzamide] came in with an inhibition constant (Ki) of roughly 52 nM. Turning to `NC[C@H]1C[C@H]1C(=O)Nc1cc(NC(=O)c2c(F)cccc2Cl)ccn1` (relative stereo) [Example 608, cis-N-(2-(2-(aminomethyl)cyclopropanecarboxamido)pyridin-4-yl)-2-chloro-6-fluorobenzamide], the inhibition constant (Ki) under setting [1] is roughly 140 nM. Take `O=C(Nc1ccnc(NC(=O)C2CC2)c1F)c1c(Cl)cccc1Cl` (single isomer, unassigned) [Example 263, 2,6-dichloro-N-(3-fluoro-2-cyclopropanecarboxamidopyridin-4-yl)benzamide]: under setting [1], the Ki is roughly 24 nM. `O=C(Nc1cc(NC(=O)C2CC2)ncc1F)c1c(Cl)cccc1Cl` (single isomer, unassigned) [Example 264, 2,6-dichloro-N-(5-fluoro-2-cyclopropanecarboxamidopyridin-4-yl)benzamide]: the Ki under setting [1] was roughly 10 nM. In general, inhibition refers to the percentage by which the read-out fell short of the control. Higher therefore signals a response far below the control. Consider `O=C(Nc1ccc(NC(=O)C2CC2)nc1)c1c(Cl)cccc1Cl` [2,6-dichloro-N-(6-(cyclopropanecarboxamido)-pyridin-3-yl)benzamide, reference compound], for which the Ki under setting [1] is greater than 3500 nM. Besides, for the setting “measured at 10 μM concentration of compound”, the inhibition at 10 µM was roughly 5.7%. For the compound `Nc1cc(NC(=O)c2c(Cl)cccc2Cl)ccn1` [Example 2, N-(2-aminopyridin-4-yl)-2,6-dichlorobenzamide], the Ki under setting [1] is roughly 850 nM. Regarding `O=C(Nc1ccncn1)c1c(Cl)cccc1Cl` [Example 3, 2,6-dichloro-N-(pyrimidin-4-yl)benzamide], the Ki under setting [1] was roughly 720 nM. In the case of `O=C(Nc1ccnc(Nc2nccs2)c1)c1c(Cl)cccc1Cl` [Example 4, 2,6-dichloro-N-(2-(thiazol-2-ylamino)pyridin-4-yl)benzamide], the Ki under setting [1] was roughly 380 nM. `O=C(Nc1ccncc1)c1c(Cl)cc(-c2cc[nH]n2)cc1Cl` [Example 11, 2,6-dichloro-4-(1H-pyrazol-3-yl)-N-(pyridin-4-yl)benzamide]: the Ki under setting [1] is roughly 650 nM. The same measure, in the same setting: the result for `Cc1ccc(Cl)c(C(=O)Nc2ccncc2)c1F` [Example 17, 6-chloro-2-fluoro-3-methyl-N-(pyridin-4-yl)benzamide] reads roughly 360 nM; that for `O=C(Nc1ccncc1)c1c(Cl)cc(CO)cc1Cl` [Example 76, 2,6-dichloro-4-(hydroxymethyl)-N-(pyridin-4-yl)benzamide], roughly 220 nM; that for `COCCOc1ccc(Nc2cc(NC(=O)c3c(Cl)cccc3Cl)ccn2)cc1C(F)(F)F` [Example 115, 2,6-dichloro-N-(2-(4-(2-methoxyethoxy)-3-(trifluoromethyl)phenyl-amino)pyridin-4-yl)benzamide], roughly 570 nM. For the compound `O=C(Nc1ccnc(NC2CC2)n1)c1c(Cl)cccc1Cl` [Example 156, 2,6-dichloro-N-(2-(cyclopropylamino)-pyrimidin-4-yl)benzamide], the Ki under setting [1] was roughly 990 nM. On the same count and under the same terms, the result for `O=C(Nc1ccnc(NC(=O)C2CC2)c1)c1c(Cl)cc(CO)cc1Cl` [Example 178, 2,6-dichloro-N-(2-(cyclopropanecarboxamido)-pyridin-4-yl)-4-(hydroxymethyl)benzamide] reads roughly 5 nM.

For the compound `Cc1cc(Nc2nccc(NC(=O)c3c(Cl)cc(C#N)cc3Cl)c2[N+](=O)[O-])nc(C)n1` [Example 238, 2,6-dichloro-4-cyano-N-(2-(2,6-dimethylpyrimidin-4-ylamino)-3-nitropyridin-4-yl)benzamide], the Ki under setting [1] is roughly 450 nM. In turn, `N#Cc1cc(Cl)c(C(=O)Nc2ccnc(NC(=O)C3CC3)c2)c(Cl)c1` [Example 256, 2,6-dichloro-4-cyano-N-(2-(cyclopropanecarboxamido)pyridin-4-yl)benzamide] registered a Ki of roughly 2 nM. In the case of `CN(C)C(=O)c1cc(Cl)c(C(=O)Nc2ccnc(NC(=O)C3CC3)c2)c(Cl)c1` [Example 260, 2,6-dichloro-N^1-(2-(cyclopropanecarboxamido)pyridin-4-yl)-N^4,N^4-dimethylterephthalamide], the Ki under setting [1] is roughly 27 nM. Same read-out and setting: the result for `O=C(Nc1ccncc1)c1ccccc1Br` [Example 271, 2-bromo-N-(pyridine-4-yl)benzamide] reads roughly 810 nM. For `O=C(Nc1ccncc1F)c1c(Cl)cccc1Cl` [Example 272, 2,6-dichloro-N-(3-fluoropyridin-4-yl)benzamide], the inhibition constant (Ki) under setting [1] was roughly 190 nM.

For `N#Cc1cc(Cl)c(C(=O)Nc2ccnc(N)c2)c(Cl)c1` [Example 281, N-(2-aminopyridin-4-yl)-2,6-dichloro-4-cyanobenzamide], under setting [1], the Ki was roughly 93 nM. On the same count and under the same terms, the result for `O=C(Nc1cc(NC(=O)c2c(Cl)cccc2Cl)ccn1)Oc1ccccc1` [Example 350, phenyl 4-(2,6-dichlorobenzamido)pyridin-2-ylcarbamate] reads roughly 62 nM. Still for that read-out and setting: the result for `Cc1cc(Nc2cc(NC(=O)c3c(Cl)cc(Cl)cc3Cl)ccn2)nc(N2CCOCC2)n1` [Example 380, 2,4,6-trichloro-N-(2-(6-methyl-2-morpholinopyrimidin-4-ylamino)pyridin-4-yl)benzamide] reads roughly 3.5 nM; that for `Cc1cc(Nc2cc(NC(=O)c3c(Cl)cc(CNCC4CC4)cc3Cl)ccn2)nc(N2CCOCC2)n1` [Example 406, 2,6-dichloro-4-((cyclopropylmethylamino)-methyl)-N-(2-(6-methyl-2-morpholinopyrimidin-4-ylamino)pyridin-4-yl)benzamide], roughly 3.6 nM; that for `Cc1cc(Nc2cc(NC(=O)c3c(Cl)cc(C#N)cc3Cl)ccn2)nc(N(CCO)CCO)n1` [Example 415, N-(2-(2-(bis(2-hydroxyethyl)amino)-6-methylpyrimidin-4-ylamino)pyridin-4-yl)-2,6-dichloro-4-cyanobenzamide], roughly 0.5 nM. As to `Cc1cc(Nc2cc(NC(=O)c3c(Cl)cc(CO)cc3Cl)ccn2)nc(NCCO)n1` [Example 416, 2,6-dichloro-N-(2-(2-(2-hydroxyethylamino)-6-methylpyrimidin-4-ylamino)pyridin-4-yl)-4-(hydroxymethyl)-benzamide], the Ki under setting [1] was roughly 0.6 nM. Take `Cc1cc(Nc2cc(NC(=O)c3c(Cl)cccc3Cl)ccn2)nc(N)n1` [Example 495, N-(2-(2-amino-6-methylpyrimidin-4-ylamino)pyridin-4-yl)-2,6-dichlorobenzamide]: under setting [1], the Ki is roughly 1.5 nM. In the case of `CCc1cc(Nc2cc(NC(=O)c3c(Cl)cccc3Cl)ccn2)nc(N2CCNCC2)n1` [Example 534, 2,6-dichloro-N-(2-(6-ethyl-2-(piperazin-1-yl)pyrimidin-4-ylamino)pyridin-4-yl)benzamide], the Ki under setting [1] is roughly 1.8 nM. Still for that read-out and setting: the result for `CNc1nc(Nc2cc(NC(=O)c3c(Cl)cccc3Cl)ccn2)cc(C(C)C)n1` [Example 551, 2,6-dichloro-N-(2-(6-isopropyl-2-(methylamino)pyrimidin-4-ylamino)pyridin-4-yl)benzamide] reads roughly 3.3 nM; that for `CCc1cc(Nc2cc(NC(=O)c3c(Cl)cccc3Cl)ccn2)nc(N2CCC(F)(F)CC2)n1` [Example 572, 2,6-dichloro-N-(2-(2-(4,4-difluoropiperidin-1-yl)-6-ethylpyrimidin-4-ylamino)pyridin-4-yl)benzamide], roughly 80 nM.

Regarding `CCc1cc(Nc2cc(NC(=O)c3c(Cl)cccc3Cl)ccn2)nc(N(CCO)CCO)n1` [Example 579, N-(2-(2-(bis(2-hydroxyethyl)amino)-6-ethylpyrimidin-4-ylamino)pyridin-4-yl)-2,6-dichlorobenzamide], the inhibition constant (Ki) under setting [1] is roughly 0.6 nM.

The values above are taken from patent US8486950B2, “Janus kinase inhibitor compounds and methods” (F. Hoffmann-La Roche AG, priority 2009, dated 2013).
